Values of other authors in US20160158274A1, “COMPOSITION FOR MUCOUS DISPERSION OR HYDRATION, CONTAINING POLY-r-[sequence] ACID” (BIOLEADERS CORPORATION, priority 2013, published 2016).

Tested on: mucin
Conditions: mucin in cystic fibrosis

Compound: O=C(O)CN(CCN(CC(=O)O)CC(=O)O)CC(=O)O [EDTA]
- dispersion of aggregated mucin: assist in dispersion of mucin
